According to patent US7157432B2, “Tetraphenylbacteriochlorin derivatives and compositions containing the same” (San-Ei Gen F.F.I., Inc., priority 2000, dated 2007):

What was measured:
[1] = UV absorption in DMSO at 20° C.; assay type: physicochemical; details: FIG. 1
Source text: As clearly shown in FIG. 1, the compounds of the present invention have a strong UV absorption peak around 740 nm. Compounds 3 to 8 and 11 to 16 show an UV absorption pattern similar to that of tetraphenylbacteriochlorin and also have a strong UV absorption peak around 740 nm.

HeLa cells = experiment: Phototoxicity test (MTT assay, viability of HeLa cells after irradiation); assay type: cell-based; details: test compound 5 or 10 μM for two hours, 500 W halogen lamp with filter cutting off light shorter than 500 nm for 8 minutes, MTT after 24 hours
Experimental: Each of Compounds 1 to 16 was evaluated about its cytotoxicity by viability of HeLa cells using MTT assay (Carmichal, J., W. G. DeGraff, A. F. Gazdar, J. D. Minna and J. B. Mitchell, Cancer Res., 1987, 47, 936–942). HeLa cells (1×10^4 cells/well) were incubated in Dulbecco's modified Eagle's medium (DMEM) containing 10% fetal bovine serum (FBS) on a 96-well plate in 5% CO2 at 37° C. for 24 hours. After washing with phosphate buffered saline (PBS), the cells were incubated in DMEM without serum in the presence of each of the compounds to be tested (5 or 10 μM) for two hours. The cells were washed with PBS and irradiated with a 500 W halogen lamp equipped with a filter cutting off the light shorter than 500 nm wave length for 8 minutes. After 24 hours' incubation, the viability was measured by the MTT assay. HeLa cells without test compound were used as a control. […] The survival ratio of the cells is calculated by the following formula: Cell survival ratio (%)=(OD540 in presence of test compound with irradiation/OD540 in presence of test compound without irradiation)×100. A cell survival ratio of 100% means the absence of cytotoxicity.

CC(=O)OC[C@H]1O[C@@H](Oc2ccc(-c3c4nc(c(-c5ccc(O[C@@H]6O[C@H](COC(C)=O)[C@@H](OC(C)=O)[C@H](OC(C)=O)[C@H]6OC(C)=O)cc5)c5ccc([nH]5)c(-c5ccc(O[C@@H]6O[C@H](COC(C)=O)[C@@H](OC(C)=O)[C@H](OC(C)=O)[C@H]6OC(C)=O)cc5)c5nc(c(-c6ccc(O[C@@H]7O[C@H](COC(C)=O)[C@@H](OC(C)=O)[C@H](OC(C)=O)[C@H]7OC(C)=O)cc6)c6ccc3[nH]6)CC5)CC4)cc2)[C@H](OC(C)=O)[C@@H](OC(C)=O)[C@@H]1OC(C)=O [Compound 1, 5,10,15,20-tetrakis[4-(2′,3′,4′,6′-tetra-O-acetyl-β-D-glucopyranosyloxy)phenyl]bacteriochlorin]
strong UV absorption peak [1]: around 740 nm

OC[C@H]1O[C@@H](Oc2ccc(-c3c4nc(c(-c5ccc(O[C@@H]6O[C@H](CO)[C@@H](O)[C@H](O)[C@H]6O)cc5)c5ccc([nH]5)c(-c5ccc(O[C@@H]6O[C@H](CO)[C@@H](O)[C@H](O)[C@H]6O)cc5)c5nc(c(-c6ccc(O[C@@H]7O[C@H](CO)[C@@H](O)[C@H](O)[C@H]7O)cc6)c6ccc3[nH]6)CC5)CC4)cc2)[C@H](O)[C@@H](O)[C@@H]1O [Compound 9, 5,10,15,20-tetrakis[4-(β-D-glucopyranosyloxy)phenyl]-bacteriochlorin]
strong UV absorption peak [1]: around 740 nm

OC[C@H]1O[C@@H](Oc2cccc(-c3c4nc(c(-c5cccc(O[C@@H]6O[C@H](CO)[C@@H](O)[C@H](O)[C@H]6O)c5)c5ccc([nH]5)c(-c5cccc(O[C@@H]6O[C@H](CO)[C@@H](O)[C@H](O)[C@H]6O)c5)c5nc(c(-c6cccc(O[C@@H]7O[C@H](CO)[C@@H](O)[C@H](O)[C@H]7O)c6)c6ccc3[nH]6)CC5)CC4)c2)[C@H](O)[C@@H](O)[C@@H]1O [Compound 10, 5,10,15,20-tetrakis[3-(β-D-glucopyranosyloxy)phenyl]-bacteriochlorin]
strong UV absorption peak [1]: around 740 nm
cytotoxicity when irradiated with light (cell survival ratio, FIG. 2) (HeLa cells): exhibited cytotoxicity

O[C@@H]1[C@H](Oc2cccc(-c3c4nc(c(-c5cccc(O[C@@H]6OC[C@@H](O)[C@@H](O)[C@@H]6O)c5)c5ccc([nH]5)c(-c5cccc(O[C@@H]6OC[C@@H](O)[C@@H](O)[C@@H]6O)c5)c5nc(c(-c6cccc(O[C@@H]7OC[C@@H](O)[C@@H](O)[C@@H]7O)c6)c6ccc3[nH]6)CC5)CC4)c2)OC[C@@H](O)[C@H]1O [Compound 14, 5,10,15,20-tetrakis[3-(β-D-arabinopyranosyloxy)phenyl]-bacteriochlorin]
cytotoxicity when irradiated with light (cell survival ratio, FIG. 2) (HeLa cells): exhibited cytotoxicity

CC(=O)OC[C@H]1O[C@@H](Oc2cccc(-c3c4nc(c(-c5cccc(O[C@@H]6O[C@H](COC(C)=O)[C@@H](OC(C)=O)[C@H](OC(C)=O)[C@H]6OC(C)=O)c5)c5ccc([nH]5)c(-c5cccc(O[C@@H]6O[C@H](COC(C)=O)[C@@H](OC(C)=O)[C@H](OC(C)=O)[C@H]6OC(C)=O)c5)c5nc(c(-c6cccc(O[C@@H]7O[C@H](COC(C)=O)[C@@H](OC(C)=O)[C@H](OC(C)=O)[C@H]7OC(C)=O)c6)c6ccc3[nH]6)CC5)CC4)c2)[C@H](OC(C)=O)[C@@H](OC(C)=O)[C@@H]1OC(C)=O [Compound 2, 5,10,15,20-tetrakis[3-(2′,3′,4′,6′-tetra-O-acetyl-β-D-glucopyranosyloxy)phenyl]bacteriochlorin]
strong UV absorption peak [1]: around 740 nm

O[C@@H]1[C@@H](O)[C@H](Oc2cccc(-c3c4nc(c(-c5cccc(O[C@@H]6OC[C@@H](O)[C@H](O)[C@H]6O)c5)c5ccc([nH]5)c(-c5cccc(O[C@@H]6OC[C@@H](O)[C@H](O)[C@H]6O)c5)c5nc(c(-c6cccc(O[C@@H]7OC[C@@H](O)[C@H](O)[C@H]7O)c6)c6ccc3[nH]6)CC5)CC4)c2)OC[C@H]1O [Compound 16, 5,10,15,20-tetrakis[3-(β-D-xylopyranosyloxy)phenyl]bacteriochlorin]
cytotoxicity when irradiated with light (cell survival ratio, FIG. 2) (HeLa cells): exhibited cytotoxicity
